Source: publication PMC7179653 (Antimicrobial Agents and Chemotherapy, 2020)
Where two headings read alike, the source gives them in different places. Blank lines part the entries; values can stand above or below the compound they belong to.

Legend:
[1] = design: method as in PMID 25813217, PMID 29914955, PMID 27527080, PMID 29437614; conditions: healthy individuals; cited from earlier work
clinical = conditions: human, in vivo
Description: All participants in the active group received a single 2,000-mg dose of both drugs on day 3 and q8h on days 4 to 8, with a final single dose of both drugs on the morning of day 9. A washout period of approximately 24 h between treatments was provided. Study treatments were administered as 30-min (SAD study) or 90-min (MAD study) i.v. infusions, the latter to investigate the pharmacokinetics using a longer infusion time, which is commonly used to increase the time above the MIC of β-lactams ([15]). The choice of a 90-min infusion time for the MAD study was dictated by the stability and toxicology data available at the time the study was being designed. […] Safety assessments included monitoring of AEs, laboratory safety tests (hematology, serum chemistry, and urinalysis), 12-lead ECG (discrete recordings and 24-h Holter recording), and vital signs (blood pressure, pulse rate, and body temperature). In the SAD study, safety assessments were performed predose at screening, at day 1, postdose periodically on days 1, 2, and 7 (follow-up), and at early withdrawal, if relevant. […] In the MAD study, safety assessments were done predose at screening, at day 2, postdose periodically on days 1, 2, 4, 7, and 8, on days 13 to 15 (follow-up), and at early withdrawal, if relevant. […] On all other days, a single predose sample was collected for pharmacokinetic evaluation prior to the morning infusion. Blood was collected into lithium-heparin tubes and stored at a nominal –80°C temperature until analysis.

SMILES: O=C(NC1CCNCC1)[C@@H]1CC[C@@H]2CN1C(=O)N2OS(=O)(=O)O [relebactam]
half-life [1]: approximately 2 h

Tmax (clinical): 1 h
clearance (clinical; CL): 253 mL/min
CL renal (clinical; CLr): 161 mL/min
Vd (clinical; Vdss): 19.8 L
half-life (clinical; t1/2): 1.3 h
SMILES: C[C@@H](O)[C@H]1C(=O)N2C(C(=O)O)=C(S[C@@H]3CN[C@H](C(=O)N(C)C)C3)[C@H](C)[C@H]12 [meropenem]

SMILES: NC(=O)[C@@H]1CC[C@@H]2CN1C(=O)N2OS(=O)(=O)O [avibactam]
half-life [1]: approximately 2 h

SMILES: O=C(O)C[C@@H]1CC[C@H](NC(=O)Cc2cccs2)B(O)O1 [vaborbactam]
half-life [1]: approximately 2 h
